Publication PMC10967856, “Mechanistic Insights Revealed by YbtPQ in the Occluded State” (Biomolecules, 2024)

Assays:
[1] = target: T1, YbtPQ (Escherichia coli, UniProt Q1RAG2+Q1RAG3); settings: YbtPQ-nanodisc; basal ATPase activity, no Km given
T1 construct: gene ybtP

[2] = target: T1, YbtPQ; settings: trapping at 37 °C for 15 min, vanadate 0-20 mM tested (20 mM with 18 mM ATP and 54 mM MgCl2 for the cryo-EM sample); YbtPQ-nanodisc; traps as ADP-Vi

SMILES | ATPase activity, malachite green phosphate release [1] | % drop in ATPase activity after vanadate trapping [2]
Nc1ncnc2c1ncn2[C@@H]1O[C@H](COP(=O)(O)OP(=O)(O)OP(=O)(O)O)[C@@H](O)[C@H]1O [ATP] | malachite green reacting with the released phosphate group | 
[O]=[V]([OH])([OH])[OH] [vanadate] |  | ~ 90%
